Laboratory results as given in patent US8362072B2, “BRCA1-based breast or ovarian cancer treatment agents and methods of use” (University of Kansas, priority 2007, dated 2013).

Tests used:
human BRCA1 promoter = experiment: BRCA1-luciferase reporter assay (Steady-Glo) in stably transfected MCF7 cells; assay type: cell-based; conditions: for EC50 / EC90: MCF7-BRCA1-luciferase cells, dilution series; for BRCA1-luciferase activity (in words): MCF7 pGL4.14-hBRCA1.3 cells
Method: Hygromycin selected MCF7 cells were seeded in 384-well tissue culture plates. The first two columns of each plate were empty so as to include established positive and negative controls. Each of the remaining 352 wells contained a compound to be screened. MCF7 cells were incubated with the compounds for 48 hours. Luciferase activity was measured using the Steady Glo Luciferase Assay System (Promega). Briefly, 5×10^6 MCF7 cells were transfected with […] of purified pGL4.14 containing the human BRCA1 promoter (pGL4.14-hBRCA) with Effectene as per manufacturers protocol (Qiagen). Stable transfectants were selected with […] Hygromicin B. 1×10^5 or 2×10^5 stable transfectants were tested for luciferase activity with the Steady-Glo Luciferase Assay System (Promega).
Hygromycin selected MCF-7 cells (e.g., MCF7 clone pGL4.14-hBRCA1.3) stably transfected with the human BRCA1-luciferase reporter construct (e.g., pGL4.14-hBRCA1.3) were seeded in 384-well white tissue culture plates (Becton Dickenson, San Diego, Calif.) at 1×10^4 cells/well. These cells were then stimulated with indicated concentrations of genistein (Sigma-Aldrich, St. Louis, Mo.) for 0, 6, 9, 24 and 48 hours. Luciferase activity was measured using the Steady Glo Luciferase Assay System (Promega). The data shown in FIG. 3A is representative of 3 individual experiments.
Two different chemical libraries were screened for the ability to enhance BRCA1 gene expression. To examine the effects of each compound on BRCA1 expression, the human BRCA1 promoter was cloned and inserted upstream of the firefly luciferase gene in the plasmid pGL4.14 (BRCA1-Luc) (Promega), as described above. The ER positive human breast cancer cell line, MCF7, was transfected and stable transfectants were selected with hygromycin.
Briefly, compounds were plated in a 384 well plate in a total volume of 20 μl. A ten point dilution series was used at concentrations—100 µM, 10 μM, 1 μM, 100 nM, 10 nM, 1 nM, 0.1 nM, 0.01 nM, 0.0001 nM, 0 (DMSO vehicle only). A second dilution series of 100 μM, 32.5 μM, […], 3.6 μM, 1.2 μM, 400 nM, 132.2 nM, 45 nM, 14.8 nM, 5 nM, and 1.65 nM was also used. MCF7-BRCA1-luciferase cells were added to the compounds at a concentration of 1×10^4 cells/well in a volume of 25 μl. The 384 well plates, containing the compounds+cells, were then incubated at 37° C. for 48 hours. After 48 hours, luciferase activity was measured with the Steady-Glo® Luciferase Assay System (Promega, Madison, Wis.).

BRCA1 protein = BRCA1 protein expression in MCF7 cells by Western blot; assay type: cell-based, human; conditions: 48 hours, compared to DMSO
Method: Compounds 29 and 30 were studied for BRCA1 and actin (e.g., housekeeping gene for normalization) protein expression. Briefly, MCF7 cells (2×10^6) in 2 ml MEM were plated in a 6 well tissue culture plate and were either left nonstimulated or treated with DMSO (vehicle control), […] Genistein, or 3 different concentrations of indicated test compound—3.65 μM, […], 32.5 μM. Following incubation at 37° C. for 48 hours, the media was removed and the cells were washed 1× with 500 μl of ice cold PBS. Another 500 μl of ice cold PBS was then added and the cells were scraped off the well and transferred to a microcentrifuge tube. To ensure all cells were removed from the well, an additional […] of ice cold PBS was added to the well and any remaining cells were combined with the initial cell harvest into the microcentrifuge tube. The cells were then pelleted by centrifugation for 5 min at 3000 rpm, 4° C. The supernate was removed and the pellet was then lysed in 150 μl of ice cold RIPA buffer+1× protease inhibitors, on ice for 30 minutes, vortexing occasionally. The cellular debris was then removed by centrifugation for 20 minutes at 11,000 rpm, 4° C. The remaining supernate, containing the extracted proteins, was then transferred to a microcentrifuge tube and quantified using the Bio-Rad DC assay. 100 μg of protein+1×SDS-PAGE sample buffer was loaded onto an 8% Tris glycine gel. The proteins were separated in a tris glycine running buffer at 125 volts for 90 minutes. The proteins were then transferred out of the gel onto PVDF in an overnight transfer with 20% methanol at 35 volts, 4° C. The PVDF membrane was then blocked with 5% milk/PBST (0.1%) for 1 hour at room temperature (RT). BRCA1 protein was detected using anti-BRCA1 (Ab-1, EMD Biosciences) at a 1:250 dilution in 3% milk/PBST, overnight at 4° C. […] To monitor equal protein loading, actin was detected using anti-actin at a 1:200,000 dilution in 5% milk/PBST for 1 hr at RT. […] Chemiluminescence was detected using the SuperSignal West Femto kit made by Pierce Biotechnology and the UVP imaging center. […]

BRCA1 RNA = BRCA1 RNA expression in MCF7 cells by qRT-PCR (TaqMan, 18S normalised); assay type: cell-based, human; conditions: 48 hours, 3.65-32.5 μM, compared to DMSO and genistein
Method: Compounds 29 and 30 were studied for BRCA1 and 18S (e.g., housekeeping gene for normalization) RNA expression. Briefly, MCF7 cells (2×10^6) in 2 ml MEM were plated in a 6 well tissue culture plate and were either left nonstimulated or treated with DMSO (vehicle control), 10 μM Genistein, or 3 different concentrations of indicated test compound—3.65 μM, 10.8 μM, 32.5 μM. Following incubation at 37° C. for 48 hours, the media was removed and RNA was extracted per manufacturer's protocol using the RNeasy Plus RNA extraction kit made by Qiagen. Complementary DNA (cDNA) was generated per manufacturer's protocol from 1000 ng extracted RNA in a 60 μl volume using the High Capacity cDNA kit made by Applied Biosystems. Gene expression of BRCA1 and 18S was detected with the TaqMan Gene Expression assay kit made by Applied Biosystems. […] The […] reaction was run on either the ABI real time system 7500 or 7000 (see, Analysis of Relative Gene Expression Data Using Real-Time Quantitative PCR and the 2^−ΔΔCT Method. Kenneth J. Livak^a and Thomas D. Schmittgen^b, 1. ^a Applied Biosystems, Foster City, Calif., 94404 ^b Department of Pharmaceutical Sciences, College of Pharmacy, Washington State University, Pullman, Wash., 99164-6534. Methods, Volume 25, Issue 4, December 2001, Pages 402-408).

MCF7 cells = experiment: Cell viability of MCF7 cells (CellTiter 96 AQueous One); assay type: cell-based, human; conditions: 48 hours
Method: Additionally, the compounds were tested for cell viability. Compounds were plated at 2× in 50 μl MEM in triplicate in a clear 96 well tissue culture plate. A ten point dilution series was used at concentrations—100 μM, 10 μM, 1 μM, 100 nM, […], 1 nM, 0.1 nM, 0.01 nM, 0.0001 nM, 0 (DMSO vehicle only). MCF7 cells (5×10^3) were added in a volume of 50 μl MEM to the appropriate wells, diluting the compounds to 1×. Cells were incubated at 37° C. for 48 hours. 20 μl of CellTiter 96® AQueous One Solution Reagent (Promega) was added to each well and incubated for 3 hours at 37° C. Absorbance was measured at 490 nm using the Perkin Elmer Victor 3V plate reader. Absorbance signals were normalized to DMSO vehicle control and were expressed as percent viable.

Compound	EC50 (human BRCA1 promoter; Homo sapiens, MCF7, 48 h) [µM]	EC90 (human BRCA1 promoter; Homo sapiens, 48 hours) [µM]	BRCA1 protein expression (BRCA1 protein)	other results
CC(C)(C)C(=O)Nc1cccc(C(=O)Nc2ccc(Cl)cc2)c1 [Cmpd 2]	70.5	967		toxicity (cell viability) compared to genistein (MCF7 cells): less toxic compared to genistein
O=c1c(-c2ccc(O)cc2)coc2cc(O)cc(O)c12 [Genistein, genistein, reference compound]	14.5	25	increase in BRCA1 protein	BRCA1-luciferase activity (in words) (human BRCA1 promoter; 48 hours): dose-dependent increase in BRCA1-luciferase activity; BRCA1-luciferase activity (in words) (human BRCA1 promoter; 48 hours, listed as genistein): increase in BRCA1-luciferase activity
O=c1c(-c2ccc(O)cc2)coc2cc(O)ccc12 [Daidzein, reference compound]				BRCA1-luciferase activity (in words) (human BRCA1 promoter; 48 hours): dose-dependent increase in BRCA1-luciferase activity
Oc1c(F)cccc1/C=N/c1ccc2oc(-c3ccccc3)nc2c1 [Cmpd 1]	6.82	54.9		toxicity (cell viability) compared to genistein (MCF7 cells): less toxic compared to genistein
Cc1ccc(-c2nc3ccc(NCc4cccs4)cc3o2)cc1 [Cmpd 25]				EC50 (human BRCA1 promoter; 48 hours): 8.63 µM

Now from value to compound, other results behind:

EC50 (human BRCA1 promoter; Homo sapiens, MCF7, 48 h) [µM]	EC90 (human BRCA1 promoter; Homo sapiens, 48 hours) [µM]	Compound	BRCA1 protein expression (BRCA1 protein)	other results
8.49	91.8	Cc1ccc(OCC(=O)O/N=C(\N)c2ccccn2)c(C)c1 [Cmpd 29]	increase endogenous BRCA1	BRCA1 RNA expression (BRCA1 RNA): increase BRCA1 RNA expression
4.13	55.4	CCc1ccc(OCC(=O)O/N=C(\N)c2ccncc2)c(C)c1 [Cmpd 30]	increase endogenous BRCA1	BRCA1 RNA expression (BRCA1 RNA): increase BRCA1 RNA expression
	~38.8	O=C(COc1cccc2cccnc12)N1CCc2ccccc21 [Cmpd 16]		
